Test results published in PubChem BioAssay (NCI).
Where “and” joins values, the source holds several entries; their conditions need not be identical. Equal entries are not always repeated.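 Test compounds were applied to cells in 96-well plates for 48 hours at 5 doses. GI50 = concentration required for 50% inhibition of growth. The concentration for full growth arrest is given as TGI.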

Legend:
Assay in all cases: growth of human tumour cells (NCI), 48 h
SF-295 CNS = tested on: SF-295 CNS
SNB-75 CNS = tested on: SNB-75 CNS
MALME-3M melanoma = tested on: MALME-3M melanoma
SK-OV-3 ovarian = tested on: SK-OV-3 ovarian
CAKI-1 renal = tested on: CAKI-1 renal
A498 renal = tested on: A498 renal
HT29 colon = tested on: HT29 colon
HCT-116 colon = tested on: HCT-116 colon
MCF7 breast = tested on: MCF7 breast

Compound	TGI (SF-295 CNS)	TGI (SNB-75 CNS)	TGI (MALME-3M melanoma)	TGI (SK-OV-3 ovarian)	TGI (CAKI-1 renal) [µM]	TGI (A498 renal)	TGI (HT29 colon)	TGI (HCT-116 colon)	GI50 (SF-295 CNS) [µM]	GI50 (SNB-75 CNS) [µM]	GI50 (MALME-3M melanoma) [µM]	GI50 (SK-OV-3 ovarian) [µM]	GI50 (MCF7 breast) [µM]	TGI (MCF7 breast) [µM]	GI50 (CAKI-1 renal) [µM]	GI50 (A498 renal) [µM]	GI50 (HT29 colon) [µM]	GI50 (HCT-116 colon) [µM]
Cc1ccccc1N1C(=O)/C(=C/c2ccc(N(CCC#N)CCC#N)cc2)N=C1c1cc([N+](=O)[O-])ccc1Cl	> 100 µM	> 100 µM	> 100 µM	> 100 µM	> 100	> 100 µM	> 100 µM	–	–	–	–	–	–	–	–	–	–	–
CC1OC(n2cc(F)c(=O)[nH]c2=O)C=CC1O (stereo not given)	> 100 µM	> 100 µM	> 100 µM	> 100 µM	> 100	> 100 µM	> 100 µM	> 100 µM	–	–	–	–	–	–	–	–	–	–
O=S(O)CCCCSSCC(O)C(O)CSSCCCCS(=O)O (stereo not given)	33.1 µM and 37.5 µM	> 100 µM and 88.7 µM	25.8 µM and 35.9 µM	> 100 µM	> 100	> 100 µM	24.4 µM and 27 µM	–	–	–	–	–	–	–	–	–	–	–
CCOP(=O)(Cc1ccc(CP(=O)(OCC)OCC)n1C)OCC	> 100 µM	> 100 µM	> 100 µM	> 100 µM	> 100	–	> 100 µM	–	–	–	–	–	–	–	–	–	–	–
COc1ccc(N(C)c2ncnc3occ(C)c23)cc1	> 100 µM	> 52 µM	> 100 µM	> 100 µM	> 100	< 0.01 µM	16.3 µM	0.197 µM	< 0.01	< 0.01	38.7	< 0.01	< 0.01	> 100	< 0.01	< 0.01	< 0.01	< 0.01
Cc1ccc(S(=O)(=O)NCC2CCCCC2=O)cc1 (stereo not given)	> 100 µM	93.1 µM	> 100 µM	> 100 µM	67.5	> 100 µM	> 100 µM	> 100 µM	–	–	–	–	–	–	–	–	–	–
CCN(CC)CCOc1ccc(/C=C(\C#N)c2ccc(OCCN(CC)CC)cc2)cc1	28 µM	47.8 µM	28 µM	> 64.2 µM	> 60.1	32.2 µM	8.58 µM	21.9 µM	–	–	–	–	–	–	–	–	–	–
CC1=Nc2ccccc2C1C(Cc1ccccc1N)c1c(C)[nH]c2ccccc12 (stereo not given)	25.8 µM	34.8 µM	31 µM	53.3 µM	–	29.8 µM	33.1 µM	30.6 µM	–	–	–	–	–	–	–	–	–	–
COc1ccc(OC)c(NC(=O)C(=O)NNC(=O)c2sc(NNC(C)=O)nc2C)c1	> 100 µM	–	> 100 µM	> 100 µM	> 100	52.1 µM	> 100 µM	> 100 µM	–	–	–	–	–	–	–	–	–	–
C=C(CCCCC)CN1CCCC1[C@@](C)(O)CC(=O)OCC (stereo not given in full)	> 100 µM	> 100 µM	> 100 µM	> 100 µM	> 100	> 100 µM	> 100 µM	> 100 µM	–	–	–	–	–	–	–	–	–	–
CCCCN(CCCC)CC(C(=O)Nc1ccc([N+](=O)[O-])cc1[N+](=O)[O-])/C(C)=N\NC(=S)NN (stereo not given)	> 100 µM	> 100 µM	> 100 µM	> 100 µM	–	> 100 µM	> 100 µM	> 100 µM	–	–	–	–	–	–	–	–	–	–
COC(=O)C1=C(C)N(NC(=O)c2ccccc2)C(C)(O)C12CCOC2=O (stereo not given)	> 100 µM	–	1.86 µM	> 100 µM	> 100	> 100 µM	> 100 µM	> 100 µM	–	–	–	–	–	–	–	–	–	–
O=C(O)CNc1cc(-c2ccccc2)nc(NCC(=O)O)n1	> 100 µM	> 100 µM	> 100 µM	> 100 µM	> 100	–	> 100 µM	> 100 µM	–	–	–	–	–	–	–	–	–	–
CC1=CC(/C=C(\C)CCCc2ccoc2)C2(OC(=O)C(C)=C2O)[C@H]2C1CC[C@@H]2C (stereo not given in full)	56.2 µM	> 100 µM	57.1 µM	69 µM	> 100	49.2 µM	> 100 µM	38.1 µM	–	–	–	–	–	–	–	–	–	–
COC(=O)C1=C(c2ccc3c(c2)OCO3)O[C@H](c2cc(OC)c(OC)c(OC)c2)[C@H]1COC(C)=O	11.4 µM	> 100 µM	92.5 µM	5.94 µM	66.8	2.94 µM	11.5 µM	19.6 µM	–	–	–	–	–	–	–	–	–	–
O=C1CN=C(C[N+](=O)[O-])c2ccccc21	> 100 µM	> 100 µM	> 100 µM	> 100 µM	> 100	> 100 µM	> 100 µM	> 100 µM	–	–	–	–	–	–	–	–	–	–
CC(=O)O.CC(=O)O.CC(=O)O.CC(=O)O.CC(=O)O.CC(=O)O.O.[Ti].[Ti]	> 100 µM	> 100 µM	> 100 µM	–	> 100	> 100 µM	> 100 µM	> 100 µM	> 100	56	> 100	–	–	–	> 100	> 100	> 100	> 100

Compound	TGI (SF-295 CNS)	TGI (SNB-75 CNS)	TGI (MALME-3M melanoma)	TGI (SK-OV-3 ovarian)	TGI (CAKI-1 renal) [µM]	TGI (A498 renal)	TGI (HT29 colon)	TGI (HCT-116 colon)	GI50 (SF-295 CNS) [µM]	GI50 (SNB-75 CNS) [µM]	GI50 (MALME-3M melanoma) [µM]	GI50 (SK-OV-3 ovarian) [µM]	GI50 (MCF7 breast) [µM]	TGI (MCF7 breast) [µM]	GI50 (CAKI-1 renal) [µM]	GI50 (A498 renal) [µM]	GI50 (HT29 colon) [µM]	GI50 (HCT-116 colon) [µM]
CC(C)(C)OC(=O)NCC(=O)OCc1ccccc1	> 100 µM	> 100 µM	> 100 µM	> 100 µM	–	> 100 µM	> 100 µM	> 100 µM	–	–	–	–	–	–	–	–	–	–
NC(=NCCCOc1ccc(Cl)cc1)Nc1ccc(C(F)(F)F)cc1	3.28 µM	7.67 µM	4.01 µM	18.1 µM	9.03	6.08 µM	5.55 µM	2.74 µM	1.7	0.914	1.93	4.68	1.72	4.85	2.48	2.08	1.88	1.32
CC(O)C(N=Cc1ccccc1[O-])C(=O)[O-].CC(O)C(N=Cc1ccccc1[O-])C(=O)[O-].[Co+2] (stereo not given)	> 100 µM	> 100 µM	> 100 µM	> 100 µM	–	–	–	–	> 100	> 100	> 100	70.9	–	–	–	–	–	–
O=[n+]1c2c(n([O-])c3ccccc31)CCCCCCCCCC2	> 100 µM	> 100 µM	> 100 µM	> 100 µM	> 100	–	> 100 µM	> 100 µM	–	–	–	–	–	–	–	–	–	–
COc1ccc(NC(=O)CCc2cc(-c3ccc(O)c(OC)c3)nc(NC#N)n2)cc1	> 100 µM	–	> 100 µM	> 100 µM	> 100	–	> 100 µM	> 100 µM	–	–	–	–	–	–	–	–	–	–
O=C(Nc1nc2ncn(CCI)c2c(=O)[nH]1)c1ccccc1	> 87.4 µM	46.4 µM	> 100 µM	90.5 µM	> 100	83.3 µM	> 100 µM	> 100 µM	–	–	–	–	–	–	–	–	–	–
COC(=O)c1cc2c(cc1O)[C@@H](NC(C)=O)CCc1cc(OC)c(OC)c(OC)c1-2	> 100 µM	–	–	> 100 µM	> 100	–	0.201 µM and 0.0554 µM	–	< 0.01	–	0.0299	0.0831	–	> 100	0.0214	0.0422	0.0206	0.0164
Clc1ccc2c(NCCCNc3nccc(Nc4ccc(Br)cc4)n3)ccnc2c1	2.97 µM	2.57 µM	–	2.91 µM	3	2.48 µM	2.67 µM	3.08 µM	1.56	1.3	–	1.55	1.39	2.94	1.53	1.22	1.26	1.36
CCOC(=O)Oc1c(OC)cc(C(=O)NC2CCc3cc(OC)c(OC)c(OC)c3-c3ccc(SC)c(=O)cc32)cc1OC (stereo not given)	–	< 0.007 µM	> 70 µM	0.466 µM and 0.0553 µM	–	0.514 µM and 0.0622 µM	0.489 µM	0.311 µM and 0.0975 µM	0.0242	< 0.007	0.0205	0.00717	–	–	–	0.0206	–	< 0.007
CNC(=S)NC1CCCCC1NC(=S)NC (stereo not given)	> 100 µM	> 100 µM	> 100 µM	> 100 µM	> 100	–	> 100 µM	> 100 µM	–	–	–	–	–	–	–	–	–	–
Cc1cc(Br)cc(C)c1NC(=O)C(=O)C(C(=O)c1ccc2ccccc2c1)C1OC(=O)c2ccccc21 (stereo not given)	14.9 µM	43.9 µM	34.5 µM	> 100 µM	51.1	25.6 µM	41.7 µM	29.4 µM	–	–	–	–	–	–	–	–	–	–
COC(=O)C12C3C4C1C1C2C3C41C(=O)OC(C)(C)C (stereo not given)	> 100 µM	> 100 µM	> 100 µM	> 100 µM	> 100	> 100 µM	> 100 µM	70.3 µM	–	–	–	–	–	–	–	–	–	–
O=C1CCCC/C(=C/c2ccccc2)N1	> 100 µM	> 100 µM	> 100 µM	> 100 µM	> 100	> 100 µM	> 100 µM	> 100 µM	–	–	–	–	–	–	–	–	–	–
O=C(O/N=C1/CCCC/C1=C\c1ccccc1)c1ccccc1	> 100 µM	> 100 µM	> 100 µM	> 100 µM	–	0.514 µM	> 100 µM	> 100 µM	–	–	–	–	–	–	–	–	–	–
CC(C)(C)[SiH]12(OC(C(F)(F)F)(C(F)(F)F)c3ccccc31)OC(C(F)(F)F)(C(F)(F)F)c1ccccc12	8.41 µM	7.18 µM	31 µM	–	25.3	–	13.2 µM	13 µM	–	–	–	–	–	–	–	–	–	–
S=C(N/N=C/c1ccco1)NC12CC3CC(CC(C3)C1)C2	> 100 µM	> 100 µM	> 100 µM	> 100 µM	> 100	> 100 µM	> 100 µM	> 100 µM	–	–	–	–	–	–	–	–	–	–
O=C(OCc1ccc2cccc(O)c2n1)N1CCN(C(=O)c2cc3cc(F)ccc3[nH]2)CC1	18.6 µM	2.24 µM	2.78 µM	11.9 µM	1.66	3.25 µM	3.05 µM	1.32 µM	5.69	1.02	1.46	2.77	–	–	0.354	1.71	1.14	0.357
